Paper PMC12345723, “Valorization of Coffee Silverskin via Integrated Biorefinery for the Production of Bioactive Peptides and Xylooligosaccharides: Functional and Prebiotic Properties” (Foods, 2025)
Marks after values point to notes of the source that are not given here.

Columns and labels:
[1] = system: RAW 264.7 macrophages; details: cited from earlier work
Protocol: A peptide concentration of 200 µg/mL was selected based on preliminary cytotoxicity screening using RAW 264.7 macrophage cells, which confirmed that this dose was non-toxic under the experimental conditions.

[2] = system: Dipeptidyl Peptidase-IV (DPP-IV); details: peptide 5000 μM; Gly-Pro-p-nitroanilide, Tris-HCl pH 8.0, 37 °C, 60 min; absorbance 385 nm; mean ± SD, n = 3
Protocol: The DPP-IV inhibitory activity was determined using a modified method based on Lacroix and Li-Chan [22]. Briefly, the synthetic peptide was diluted in 100 mM Tris-HCl buffer (pH 8.0) to a final concentration of 5000 μM. The reaction mixture was prepared in a 1.5 mL microcentrifuge tube by combining 75 μL of Gly-Pro-p-nitroanilide (1.59 mM), 50 μL of Tris-HCl buffer (pH 8.0), and 25 μL of the peptide sample. The mixture was pre-incubated at 37 °C for 10 min. Following pre-incubation, 50 μL of DPP-IV enzyme solution (0.01 U/mL) was added, and the reaction was incubated at 37 °C for 60 min. The reaction was terminated by adding 300 μL of 99.8% ethanol. The absorbance of the reaction mixture was measured at 385 nm, and the DPP-IV inhibitory activity was calculated and expressed as a percentage of inhibition.
ACE inhibitory activity was assessed at a peptide concentration of 500 μM, while DPP-IV inhibitory activity and antioxidant activity (ABTS radical scavenging assay) were evaluated at a concentration of 5000 μM.

[3] = system: RAW 264.7 cells; details: RAW 264.7, 24 h, 0–200 µg/mL, SRB assay
Protocol: The cytotoxicity of synthetic bioactive peptides was evaluated using the sulforhodamine B (SRB) colorimetric assay, as described by Vichai and Kirtikara. Briefly, RAW 264.7 murine macrophage cells were seeded at a 2 × 10^4 cells/well density in 96-well plates and incubated for 24 h. The cells were then treated with various concentrations of peptides (0–200 μg/mL) for an additional 24 h. After treatment, the cells were fixed with cold trichloroacetic acid (TCA) and stained with 0.4% (w/v) SRB in 1% (v/v) acetic acid. Unbound dye was removed by washing, and protein-bound SRB was solubilized using […] Tris base solution. Absorbance was measured at 520 nm using a microplate reader, and cell viability was calculated as a percentage relative to untreated control cells. Non-cytotoxic concentrations of the peptides were subsequently used for further investigation of their anti-inflammatory effects on LPS-induced nitric oxide (NO) production in RAW 264.7 cells.

[4] = ABTS radical scavenging assay; details: for Antioxidant Activity: ABTS, peptide 500 μM (table footnote), 30 min, absorbance 734 nm, mean ± SD, n = 3
Protocol: Antioxidant activity analysis was performed in the dark. DPPH, ABTS radical scavenging activity, and the ferric-reducing antioxidant power (FRAP) assay were determined following the method described by Jirarat et al. (2024). Concisely, samples were diluted using distilled water to the desired concentration. For the DPPH assay, a 500 μL sample was mixed with 500 μL of ethanolic DPPH solution (80 mg/L) for 60 min before measuring the absorbance at 517 nm. The ABTS radical (ABTS+) solution was prepared by incubating the mixture of 2.45 mM potassium persulfate solution and 7 mM ABTS solution (1:1, v/v) for 12–16 h. The deionized water was used for diluting the ABTS^+ solution to 0.70 ± 0.02 at an absorbance of […]. After that, the ABTS assay was performed by incubating a 50 μL sample with 850 μL of prepared ABTS^+ solution for 30 min, and the radical scavenging activity was determined by measuring the absorbance at 734 nm. Furthermore, the FRAP assay was performed by preparing the FRAP reagent, which consisted of 300 mM acetate buffer (pH 3.6), 20 mM FeCl3·6H2O, and 10 mM TPTZ in 40 mM HCl, mixed in a 10:1:1 volume ratio. Then, 100 μL of the sample was mixed with 900 μL the FRAP reagent and incubated for 30 min. […] The antioxidant capacity in all assays was expressed as micromoles of Trolox equivalents per liter (μmol TE/L) based on a Trolox standard curve.

For “DYKKY [peptide derived from whey protein hydrolysates]”, the cytotoxic effects [1] is given as “no cytotoxic effects”.
For “FDYGKY [phenylalanine-aspartic acid-tyrosine-glycine-lysine-tyrosine, peptide from CS-protein hydrolysate fraction F4, custom synthesized]”, the “DPP-IV Inhibition” value [2] was 0%, the cytotoxicity [3] was “non-toxic” and the “Antioxidant Activity” value [4] was 50 ± 1 ^a %.
With “FLGY [phenylalanine-leucine-glycine-tyrosine, peptide from CS-protein hydrolysate fraction F3, custom synthesized]” the “DPP-IV Inhibition” value [2] was 19 ± 1 ^a %, the cytotoxicity [3] was “non-toxic” and the “Antioxidant Activity” value [4] was 48 ± 1 ^a %. For the same substance, the “ABTS radical scavenging activity” value ([4]; peptide 5000 μM as printed in the text) was 48%.
For “GTWY [peptide derived from whey protein hydrolysates]”, the cytotoxic effects [1] is listed as “no cytotoxic effects”.
For “phenylalanine-tyrosine-aspartic acid-threonine-tyrosine-tyrosine [FYDTYY]”, the “DPP-IV Inhibition” value [2] was 18 ± 3 ^a % and the cytotoxicity [3] was “non-toxic”.
